One molecule from patent US9861094B2, “Composition and method for tissue preservation and embalming” (OGF, priority 2008, dated 2018) can be followed below.

For one assay, the system named is bodies for dissection. In words: embalming of bodies for dissection (injection alone, no tapping). Further details: species or system human. To be noted: bronopol 1% by weight, 4 liters injected; dissections 14 and 16 days after death. On the procedure:
In this type of procedure, no liquid tapping or cavity injection is carried out.
1. Tests were also carried out within the faculty of medicine in the context of the preservation of bodies for dissection.
The results observed are very interesting, knowing that these tests were carried out by injection alone with no tapping.
To obtain optimum preservation of the body, a bronopol concentration of 1% by weight was used for a total injected quantity of 4 liters.
For example, the above-mentioned composition (2) was used on a subject of average build (a person who had been dead for eight days).
Before the test was performed, very marked lividities, large green abdominal marks and sunken eyes (the body had been frozen) were observed.
The product was then injected through the carotid artery in one pass (one times 3.6 liters of water and 400 ml of the above-mentioned composition (2)), for better product dilution (injection total=4 liters) (bronopol concentration=1%).
The subject was moved alternately between the cold storage room (7° C.) and the autopsy table (25° C.).

Assay [1] deals with bacteria in the body fluid. Briefly: bacteriological analyses of body fluid after embalming. An excerpt:
The results obtained according to the bronopol concentration were as follows:

The test system of a further assay is bodies of the deceased. Briefly: embalming tests for presentation of the deceased (arterial and cavity injection). Further details: species or system human. To be noted: 0.6% bronopol; bodies with no particular abnormality. On the procedure: For arterial injection, the following compositions were prepared and tested (these compositions are prepared for 1 liter of concentrated solution to which 5 liters of water are added):
This operation uses the method generally used for embalming procedures, namely injection and drainage, said drainage being generally performed in the region of the right heart.
Injection is carried out through the femoral, carotid or axillary arteries.
The amount of fluid injected is approximately 6 liters, but this amount may vary depending on the state of the deceased and the diagnosis made by the embalmer, for example the need for more drainage.
For cavity injection, the following compositions were prepared and tested (these compositions are prepared for 500 ml and used as they are):
This operation uses the method widely practised in embalming procedures, that is, gas and fluid tapping in the region of the thoracic and abdominal cavities, and injection of the composition according to the invention into each of the cavities so that said composition is diffused optimally throughout the cavities concerned.
Still using an identical base of glycerine, ethanol or methanol, tests were carried out using the compositions described in the examples above (compositions (1), (2), (3) and (3a) for arterial injection and compositions (4) and (5) for cavity injection).

Consider `O=[N+]([O-])C(Br)(CO)CO` [Bronopol, 2-bromo-2-nitropropane-1,3-diol], for which the odour result in the assay on bodies for dissection is reported as “lack of odour”. Moreover, in the assay with bodies for dissection, the “state of preservation of the body and tissue suppleness” value is “very good results”. Further, the “Presence of bacteria in the body fluid” value in assay [1] (Bronopol concentration 0.90%) is reported as 1 out of 2 cases with bacteria; in assay [1] (Bronopol concentration ≦0.80%), 7 out of 8 cases with bacteria; in assay [1] (Bronopol concentration ≧1.2%), 1 out of 3 cases with bacteria. In the assay on bodies of the deceased, the “overall result of embalming tests” value is “satisfactory results”.
